# Like-named read-outs stand apart in the source and are kept apart here.
# Key:
# [1] = system: HEL cells; test: Cytotoxicity in mock-infected HEL cells (MTS); format: cell-based, human; settings: mock-infected HEL cells, MTS, mean of 2–3 tests
# [2] = system: VeroE6 cells; test: Cytotoxicity in mock-infected VeroE6 cells (XTT); format: cell-based, African green monkey; settings: mock-infected Vero E6 cells, three days, XTT
# [3] = system: Klebsiella pneumoniae ST258 clone K 160/09; test: MIC against Gram-negative strain; settings: Klebsiella pneumoniae
# [4] = system: Escherichia coli ATCC 25218; test: MIC against Gram-negative strain; settings: ATCC25218
# [5] = system: S. epidermidis; test: microbe, parasite or virus in culture; format: cell-based; settings: Staphylococcus epidermidis
# [6] = system: E. faecium; test: microbe, parasite or virus in culture; format: cell-based; settings: Enterococcus faecium
# [7] = system: Pseudomonas aeruginosa ATCC 27853; test: MIC against Gram-negative strain; settings: ATCC27853
# [8] = system: S. aureus ATCC29213; test: Fluorescent competition assay, release of fluorescent vancomycin; settings: cells saturated with FL-VAN, Fig. 7 left panel
# [9] = system: Acinetobacter baumannii ATCC BAA1605; test: MIC against Gram-negative strain; settings: Acinetobacter baumannii, ATCCBAA1605
# [10] = system: S. haemolyticus; test: MIC, broth microdilution; format: cell-based; settings: Staphylococcus haemolyticus
# [11] = system: S. aureus; test: MIC, broth microdilution; format: cell-based; settings: Staphylococcus aureus
# [12] = system: E. faecalis; test: MIC, broth microdilution; format: cell-based; settings: Enterococcus faecalis
# [13] = system: S.pyogenes; test: MIC, broth microdilution; format: cell-based; settings: Streptococcus pyogenes
# [14] = system: Calu-3 cells; test: Cytotoxicity in mock-infected Calu-3 cells (XTT); settings: read-out: CC50, Calu-3 cells, three days
# [15] = target: T1, human recombinant cathepsin L (Homo sapiens, UniProt P07711); test: biochemical; format: biochemical; settings: read-out: Cathepsin L IC50; pH 5.5, Z-Phe-Arg-AMC substrate
# T1 construct: made in house; host or cells: Escherichia coli
# [16] = system: SARS-CoV-2 pseudovirus; test: microbe, parasite or virus in culture; format: cell-based; settings: cathepsin-dependent endosomal pathway
# [17] = system: SARS-CoV-2 pseudovirus; test: microbe, parasite or virus in culture; format: cell-based; settings: A549-AT cells, TMPRSS2-mediated uptake
# [18] = read-out: Average MIC value, S. epidermidis mecA, 6 strains
# [19] = read-out: MIC value, S.epidermidis ORI_R1, mecA
# [20] = read-out: MIC value, S.epidermidis ORI_R2, mecA
# [21] = read-out: MIC value, S.epidermidis ORI_R3, mecA
# [22] = read-out: MIC value, S.epidermidis ORI_R4, mecA
# [23] = read-out: MIC value, S.epidermidis TEI_R1, mecA
# [24] = read-out: MIC value, S.epidermidis TEI_R2, mecA
# [25] = read-out: Average MIC value, E. faecium VAN^R,TEI^R/VanA, 8 strains
# [26] = read-out: Average MIC value, E. faecium VAN^S, TEI^S, 1 strain
# [27] = read-out: MIC value, E.faecium E335, VAN,TEI,LNZ/VanA
# [28] = read-out: MIC value, E.faecium E355, VAN,TEI,LNZ/VanA
# [29] = read-out: MIC value, E.faecium E832, VAN,TEI,LNZ/VanA
# [30] = read-out: MIC value, E.faecium E854, VAN,TEI,LNZ/VanA
# [31] = read-out: MIC value, E.faecium E859, VAN,TEI,LNZ/VanA
# [32] = read-out: MIC value, E.faecium E1114, VAN,TEI,LNZ/VanA
# [33] = read-out: MIC value, E.faecium E1131, VAN,TEI,LNZ/VanA
# [34] = read-out: MIC value, E.faecium E1132, VAN,TEI,LNZ/VanA
# [35] = read-out: MIC value, E.faecium TX0016
# [36] = S. haemolyticus mecA, 6 strains, read-out: Average MIC value
# [37] = S.haemolyticus DALB_R1, mecA, read-out: MIC value
# [38] = S.haemolyticus DALB_R2, mecA, read-out: MIC value
# [39] = S.haemolyticus DALB_R3, mecA, read-out: MIC value
# [40] = S.haemolyticus DALB_R4, mecA, read-out: MIC value
# [41] = S.haemolyticus DALB_R5, mecA, read-out: MIC value
# [42] = S.haemolyticus ORI_R1, mecA, read-out: MIC value
# [43] = ATCC 29213 / MSSA, read-out: MIC value, S. aureus ATCC29213, MSSA
# [44] = MRSA / USA300, read-out: MIC value, S. aureus USA300, CA-MRSA
# [45] = MRSA, read-out: Average MIC value, S. aureus CA-MRSA, 1 strain
# [46] = MRSA, read-out: Average MIC value, S. aureus MRSA, 7 strains
# [47] = MRSA, read-out: MIC value, S. aureus 73OL, MRSA
# [48] = MRSA, read-out: MIC value, S. aureus 214OL, MRSA
# [49] = MRSA, read-out: MIC value, S. aureus 1041OL, MRSA
# [50] = MRSA, read-out: MIC value, S. aureus A6918, MRSA
# [51] = MRSA, read-out: MIC value, S. aureus A6919, MRSA
# [52] = MRSA, read-out: MIC value, S. aureus Mu50, MRSA
# [53] = MRSA, read-out: MIC value, S. aureus N315, MRSA
# [54] = MSSA / NEWMAN, read-out: MIC value, S. aureus Newman, MSSA
# [55] = MSSA, read-out: Average MIC value, S. aureus MSSA, 4 strains
# [56] = MSSA, read-out: MIC value, S. aureus MSSA476, MSSA
# [57] = MSSA, read-out: MIC value, S. aureus SA564, MSSA
# [58] = read-out: Average MIC value, E. faecalis VAN^R,TEI^R/VanA, 1 strain
# [59] = read-out: Average MIC value, E. faecalis VAN^S, TEI^S, 2 strains
# [60] = read-out: MIC value, E.faecalis JH2-2
# [61] = read-out: MIC value, E.faecalis OG1RF
# [62] = read-out: MIC value, E.faecalis V583, VAN,TEI/VanA
# [63] = read-out: MIC value, S.pyogenes H232
# [64] = read-out: MIC value, S.pyogenes H550
# [65] = read-out: MIC value, S.pyogenes H578
# T1 sequence (P07711 114-333): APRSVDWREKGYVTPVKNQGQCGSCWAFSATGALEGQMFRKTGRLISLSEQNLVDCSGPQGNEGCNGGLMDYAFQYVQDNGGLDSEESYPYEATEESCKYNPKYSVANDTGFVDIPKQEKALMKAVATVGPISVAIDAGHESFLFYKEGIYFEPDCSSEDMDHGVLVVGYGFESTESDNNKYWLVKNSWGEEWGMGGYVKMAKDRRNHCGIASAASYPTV
structure (smiles),measurement,setting,value
CC(=O)N[C@H]1[C@H](O[C@@H]2c3ccc(c(Cl)c3)Oc3cc4cc(c3O)Oc3ccc(cc3Cl)C[C@H]3NC(=O)[C@H](NC(=O)c5cc(OCCCSCCNC(=N)N)c(OCCCSCCNC(=N)N)c(OCCCSCCNC(=N)N)c5)c5ccc(O)c(c5)Oc5cc(O)cc(c5)[C@H](NC3=O)C(=O)N[C@H]4C(=O)N[C@H]3C(=O)N[C@@H]2C(=O)N[C@H](C(=O)O)c2cc(O)cc(O)c2-c2cc3ccc2O)O[C@H](CO)[C@@H](O)[C@@H]1O [Compound 7],CC50,[1],> 100 µM
same,CC50,[2],> 100 µM
same,MIC,[3],512 µg/mL
same,MIC,[4],256 µg/mL
same,MIC,[5]; [18],0.25 µg/mL
same,MIC,[5]; [19],0.25 µg/mL
same,MIC,[5]; [20],0.25 µg/mL
same,MIC,[5]; [21],0.25 µg/mL
same,MIC,[5]; [22],0.25 µg/mL
same,MIC,[5]; [23],0.25 µg/mL
same,MIC,[5]; [24],0.25 µg/mL
same,MIC,[6]; [25],> 8 µg/mL
same,MIC,[6]; [26],2 µg/mL
same,MIC,[6]; [27],> 8 µg/mL
same,MIC,[6]; [28],> 8 µg/mL
same,MIC,[6]; [29],> 8 µg/mL
same,MIC,[6]; [30],> 8 µg/mL
same,MIC,[6]; [31],> 8 µg/mL
same,MIC,[6]; [32],> 8 µg/mL
same,MIC,[6]; [33],> 8 µg/mL
same,MIC,[6]; [34],> 8 µg/mL
same,MIC,[6]; [35],2 µg/mL
same,MIC,[7],128 µg/mL
same,Outcompeting fluorescent vancomycin from S. aureus (in words),[8],no effect
same,MIC,[9],128 µg/mL
same,MIC,[10]; [36],1.2 µg/mL
same,MIC,[10]; [37],1 µg/mL
same,MIC,[10]; [38],1 µg/mL
same,MIC,[10]; [39],2 µg/mL
same,MIC,[10]; [40],2 µg/mL
same,MIC,[10]; [41],0.5 µg/mL
same,MIC,[10]; [42],0.5 µg/mL
same,MIC,[11]; [43],0.5 µg/mL
same,MIC,[11]; [44],1 µg/mL
same,MIC,[11]; [45],1 µg/mL
same,MIC,[11]; [46],0.89 µg/mL
same,MIC,[11]; [47],1 µg/mL
same,MIC,[11]; [48],1 µg/mL
same,MIC,[11]; [49],1 µg/mL
same,MIC,[11]; [50],1 µg/mL
same,MIC,[11]; [51],1 µg/mL
same,MIC,[11]; [52],1 µg/mL
same,MIC,[11]; [53],0.25 µg/mL
same,MIC,[11]; [54],1 µg/mL
same,MIC,[11]; [55],1.12 µg/mL
same,MIC,[11]; [56],2 µg/mL
same,MIC,[11]; [57],1 µg/mL
same,MIC,[12]; [58],> 8 µg/mL
same,MIC,[12]; [59],2 µg/mL
same,MIC,[12]; [60],2 µg/mL
same,MIC,[12]; [61],2 µg/mL
same,MIC,[12]; [62],> 8 µg/mL
same,MIC,[13]; [63],0.25 µg/mL
same,MIC,[13]; [64],0.25 µg/mL
same,MIC,[13]; [65],0.25 µg/mL
same,CC50,[14],> 100 µM
same,IC50,[15],4.5 ± 1 µM
CC(=O)N[C@H]1[C@H](O[C@@H]2c3ccc(c(Cl)c3)Oc3cc4cc(c3O)Oc3ccc(cc3Cl)C[C@H]3NC(=O)[C@H](n5cc(COCCCC(F)(F)C(F)(F)C(F)(F)C(F)(F)C(F)(F)C(F)(F)F)nn5)c5ccc(O)c(c5)Oc5cc(O)cc(c5)[C@H](NC3=O)C(=O)N[C@H]4C(=O)N[C@H]3C(=O)N[C@@H]2C(=O)N[C@H](C(=O)O)c2cc(O)cc(O)c2-c2cc3ccc2O)O[C@H](CO)[C@@H](O)[C@@H]1O [Compound 4],CC50,[1],> 100 µM
same,CC50,[2],> 100 µM
same,MIC,[5]; [18],0.812 µg/mL
same,MIC,[5]; [19],2 µg/mL
same,MIC,[5]; [20],1 µg/mL
same,MIC,[5]; [21],1 µg/mL
same,MIC,[5]; [22],0.25 µg/mL
same,MIC,[5]; [23],0.5 µg/mL
same,MIC,[5]; [24],0.125 µg/mL
same,MIC,[6]; [25],> 8 µg/mL
same,MIC,[6]; [26],0.25 µg/mL
same,MIC,[6]; [27],> 8 µg/mL
same,MIC,[6]; [28],> 8 µg/mL
same,MIC,[6]; [29],> 8 µg/mL
same,MIC,[6]; [30],> 8 µg/mL
same,MIC,[6]; [31],> 8 µg/mL
same,MIC,[6]; [32],> 8 µg/mL
same,MIC,[6]; [33],> 8 µg/mL
same,MIC,[6]; [34],> 8 µg/mL
same,MIC,[6]; [35],0.25 µg/mL
same,Inhibition of pseudovirus entry in Vero cells (in words),[16],highly effective
same,MIC,[10]; [36],6.8 µg/mL
same,MIC,[10]; [37],8 µg/mL
same,MIC,[10]; [38],8 µg/mL
same,MIC,[10]; [39],8 µg/mL
same,MIC,[10]; [40],8 µg/mL
same,MIC,[10]; [41],1 µg/mL
same,MIC,[10]; [42],8 µg/mL
same,MIC,[11]; [43],1 µg/mL
same,MIC,[11]; [44],2 µg/mL
same,MIC,[11]; [45],2 µg/mL
same,MIC,[11]; [46],1.71 µg/mL
same,MIC,[11]; [47],2 µg/mL
same,MIC,[11]; [48],2 µg/mL
same,MIC,[11]; [49],2 µg/mL
same,MIC,[11]; [50],1 µg/mL
same,MIC,[11]; [51],1 µg/mL
same,MIC,[11]; [52],2 µg/mL
same,MIC,[11]; [53],2 µg/mL
same,MIC,[11]; [54],2 µg/mL
same,MIC,[11]; [55],1.75 µg/mL
same,MIC,[11]; [56],2 µg/mL
same,MIC,[11]; [57],2 µg/mL
same,MIC,[12]; [58],> 8 µg/mL
same,MIC,[12]; [59],0.25 µg/mL
same,MIC,[12]; [60],0.25 µg/mL
same,MIC,[12]; [61],0.25 µg/mL
same,MIC,[12]; [62],> 8 µg/mL
same,MIC,[13]; [63],0.0625 µg/mL
same,MIC,[13]; [64],0.0625 µg/mL
same,MIC,[13]; [65],0.0625 µg/mL
same,CC50,[14],93 ± 11 µM
same,IC50,[15],66 ± 1 µM
same,Inhibition of pseudovirus entry in A549-AT cells (in words),[17],"active, though less potent"
